We go through four molecules from patent publication US20250257095A1, “METHOD FOR VISIBLE LIGHT-MEDIATED CHEMICAL MODIFICATION OF POLYPEPTIDE AND PROTEIN BASED ON CYSTEINE” (SHANGHAI JIAO TONG UNIVERSITY, priority 2022, published 2025).

Structures are written as SMILES.

This series is described as follows: Plasma stability test (incubation in plasma at 37° C., LC-MS/MS). As to conditions: 2 h later; for metabolised at 2 h, 5 μg/mL: read-out: compound degraded in plasma. The series is classed as in vitro ADME. As to the method:
About 3 μL of a 500 μg/mL compound was taken and added to 297 μL of plasma. Incubation was conducted at 37° C. for 0 h to 3 h. 20 μL of a sample was collected at 1 min, 10 min, 30 min, 60 min, and 120 min. Then 100 μL of acetonitrile was added to precipitate proteins. Then 1 μL of a sample was collected and tested by liquid chromatography-tandem triple quadrupole mass spectrometer (LC-MS/MS) to determine a downward response of the compound in the plasma. The stability of the compound in the plasma could be quantified through plotting.

Regarding `CCN1C(=O)CC(SC[C@@H](NC(=O)[C@@H](CCCCNC(=O)OC(C)(C)C)NC(=O)OCc2ccccc2)C(=O)O)C1=O` (stereo partly shown) [compound 2], the metabolised at 2 h, 5 μg/mL is roughly 1.5%.

Regarding `COC(=O)[C@H](CCC(=O)c1ccccc1)NC(=O)[C@H](CCCCNC(=O)OC(C)(C)C)NC(=O)OCc1ccccc1` [DP-11], the “compound degraded in plasma” value is “not observed”.

On to `COC(=O)[C@H](CCC(=O)c1ccccc1)NC(=O)[C@H](Cc1ccccc1)NC(=O)OC(C)(C)C` [DP-04], for which the “compound degraded in plasma” value is “not observed”.

For `CCN1C(=O)CC(SC[C@@H](NC(=O)[C@@H](Cc2ccccc2)NC(=O)OC(C)(C)C)C(=O)O)C1=O` (stereo partly shown) [compound 1], the metabolised at 2 h, 5 μg/mL was roughly 14%.
